Legend:
ERα LBD = target: T1, ERα LBD (Homo sapiens, UniProt P03372); assay: LanthaScreen TR-FRET ERα competitive binding assay
T1 sequence (P03372 311-547 limits assumed): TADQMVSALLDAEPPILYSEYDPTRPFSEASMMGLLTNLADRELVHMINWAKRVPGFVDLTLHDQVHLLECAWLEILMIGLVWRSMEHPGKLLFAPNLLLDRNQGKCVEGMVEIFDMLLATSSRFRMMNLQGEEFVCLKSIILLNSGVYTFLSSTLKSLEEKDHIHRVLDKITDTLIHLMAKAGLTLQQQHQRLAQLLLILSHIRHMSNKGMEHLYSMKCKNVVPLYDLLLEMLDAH

ERα [1] = target: T2, ERα (Homo sapiens, UniProt P03372); assay: Alkaline phosphatase; type: cell-based; conditions: Ishikawa, read-out: AP % E max, Ishikawa (ECC-1) cells, agonist mode, 72 h
T2 sequence (P03372 1-595): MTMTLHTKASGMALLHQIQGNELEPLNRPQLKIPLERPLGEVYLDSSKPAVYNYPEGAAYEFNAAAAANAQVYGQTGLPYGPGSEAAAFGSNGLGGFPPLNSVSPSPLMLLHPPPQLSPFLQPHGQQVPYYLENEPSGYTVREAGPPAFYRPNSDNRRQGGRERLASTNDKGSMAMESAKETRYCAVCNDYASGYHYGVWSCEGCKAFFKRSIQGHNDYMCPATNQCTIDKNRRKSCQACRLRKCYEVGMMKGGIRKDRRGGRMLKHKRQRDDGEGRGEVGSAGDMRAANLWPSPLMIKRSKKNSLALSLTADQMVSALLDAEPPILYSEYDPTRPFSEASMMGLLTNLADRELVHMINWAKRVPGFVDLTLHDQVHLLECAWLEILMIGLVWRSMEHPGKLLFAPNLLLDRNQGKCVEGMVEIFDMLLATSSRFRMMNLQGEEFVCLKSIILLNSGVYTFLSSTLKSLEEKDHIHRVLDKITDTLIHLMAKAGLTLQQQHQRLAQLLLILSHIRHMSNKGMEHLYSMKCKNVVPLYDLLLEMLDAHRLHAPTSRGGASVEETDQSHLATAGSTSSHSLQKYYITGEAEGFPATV

[2] = In vivo mouse oral single dose PK; conditions: for total AUCinf / free AUCinf: oral single dose; for free AUCinf: estimated based on the percent free fraction; for Cmax / half-life: plasma, po
[3] = system: E2-induced uterine wet weight; assay: Ovariectomized mouse uterine wet weight study; type: in vivo; conditions: dose giving 50% inhibition of E2-induced uterine wet weight; oral, once daily, 3 days
ERα [4] = target: T2, ERα; assay: Alkaline phosphatase; type: cell-based
[5] = Plasma protein binding, rapid equilibrium dialysis, mouse plasma; type: in vitro ADME; conditions: undiluted plasma
[6] = Human hepatocyte stability; type: in vitro ADME; conditions: hepatocytes
[7] = Mouse hepatocyte stability; type: in vitro ADME; conditions: hepatocytes

| SMILES | IC50 (ERα LBD) [nM] | Emax (ERα [1]) [%] | IC50 (ERα [4]) [nM] | half-life [6] [h] | hepatocyte CLint [6] [µL/min/1e6 cells] | half-life [7] [h] | hepatocyte CLint [7] [µL/min/1e6 cells] | further results |
| --- | --- | --- | --- | --- | --- | --- | --- | --- |
| C[C@@H]1Cc2c([nH]c3ccccc23)[C@@H](c2ccc(CCCN3CC(CF)C3)cc2)N1CC(C)(C)F [compound 22, C[C@@H]1Cc2c([nH]c3ccccc23)[C@H](N1CC(C)(C)F)c1ccc(cc1)CCCN1CC(CF)C1] | 1.58 | > 50 | – | – | – | – | – | – |
| C[C@@H]1Cc2c([nH]c3ccccc23)[C@@H](c2ccc(OCCN3CC(CF)C3)cc2)N1CC(C)(C)F [compound 23, C[C@@H]1Cc2c([nH]c3ccccc23)[C@H](N1CC(C)(C)F)c1ccc(cc1)OCCN1CC(CF)C1] | 1.58 | – | 1.26 | 3.82 | 6.1 | 5.37 | 4.3 | total AUCinf [2]: 2289 ng·h/mL; free AUCinf [2]: 3.9 ng·h/mL; Cmax [2]: 186 ng/mL; half-life [2]: 7 h; uterine wet weight ID50 [3]: <0.1 mg/kg; fraction unbound at 4 h, 1 µM [5]: 0.0017 |
| CCCN1CC(Cc2ccc([C@@H]3c4[nH]c5ccccc5c4C[C@@H](C)N3CC(C)(C)F)cc2)C1 [compound 24, CCCN1CC(C1)Cc1ccc(cc1)[C@H]1N(CC(C)(C)F)[C@H](C)Cc2c1[nH]c1ccccc21] | 3.98 | 8.5 | 3.16 | – | – | – | – | – |
| C[C@@H]1Cc2c([nH]c3ccccc23)[C@@H](c2ccc(CCCN3CC(CF)C3)c(F)c2)N1CC(C)(C)F [compound 25, C[C@@H]1Cc2c([nH]c3ccccc23)[C@H](N1CC(C)(C)F)c1ccc(c(c1)F)CCCN1CC(CF)C1] | 3.98 | 22 | 7.94 | – | – | – | – | – |
| C[C@@H]1Cc2c([nH]c3ccccc23)[C@@H](c2ccc(OCCN3CC(CF)C3)c(F)c2)N1CC(C)(C)F [compound 26, C[C@@H]1Cc2c([nH]c3ccccc23)[C@H](N1CC(C)(C)F)c1ccc(c(c1)F)OCCN1CC(CF)C1] | 2.51 | 2.1 | 2 | 4.55 | 5.1 | 3.78 | 6.1 | – |
| CCCN1CC(Cc2ccc([C@@H]3c4[nH]c5ccccc5c4C[C@@H](C)N3CC(C)(C)F)cc2F)C1 [compound 27, CCCN1CC(C1)Cc1ccc(cc1F)[C@H]1N(CC(C)(C)F)[C@H](C)Cc2c1[nH]c1ccccc21] | 2 | 7.4 | 5.01 | – | – | – | – | – |
| CCCN1CC(Oc2ccc([C@@H]3c4[nH]c5ccccc5c4C[C@@H](C)N3CC(C)(C)F)cc2F)C1 [compound 28, CCCN1CC(C1)Oc1ccc(cc1F)[C@H]1N(CC(C)(C)F)[C@H](C)Cc2c1[nH]c1ccccc21] | 3.98 | 3.1 | 10 | – | – | – | – | – |
| C[C@@H]1Cc2c([nH]c3ccccc23)[C@@H](c2c(F)cc(CCCN3CC(CF)C3)cc2F)N1CC(C)(C)F [compound 29, C[C@@H]1Cc2c([nH]c3ccccc23)[C@H](N1CC(C)(C)F)c1c(cc(cc1F)CCCN1CC(CF)C1)F] | 2.51 | – | – | – | – | – | – | – |
| C[C@@H]1Cc2c([nH]c3ccccc23)[C@@H](c2c(F)cc(OCCN3CC(CF)C3)cc2F)N1CC(C)(C)F [compound 30, C[C@@H]1Cc2c([nH]c3ccccc23)[C@H](N1CC(C)(C)F)c1c(cc(cc1F)OCCN1CC(CF)C1)F] | – | – | – | 4.5 | 5.1 | > 6 | < 3.9 | total AUCinf [2]: 2090 ng·h/mL; free AUCinf [2]: 0.8 ng·h/mL; Cmax [2]: 112 ng/mL; half-life [2]: 11 h; fraction unbound at 4 h, 1 µM [5]: 0.0004 |
| CCCN1CC(Cc2cc(F)c([C@@H]3c4[nH]c5ccccc5c4C[C@@H](C)N3CC(C)(C)F)c(F)c2)C1 [compound 31, CCCN1CC(C1)Cc1cc(c(c(c1)F)[C@H]1N(CC(C)(C)F)[C@H](C)Cc2c1[nH]c1ccccc21)F] | 5.01 | 5.4 | 1.58 | > 6 | < 3.9 | > 6 | < 3.9 | – |
| CCCN1CC(Oc2cc(F)c([C@@H]3c4[nH]c5ccccc5c4C[C@@H](C)N3CC(C)(C)F)c(F)c2)C1 [compound 32, CCCN1CC(C1)Oc1cc(c(c(c1)F)[C@H]1N(CC(C)(C)F)[C@H](C)Cc2c1[nH]c1ccccc21)F] | – | – | – | 5.4 | 4.3 | > 6 | < 3.9 | total AUCinf [2]: 2743 ng·h/mL; free AUCinf [2]: 0.3 ng·h/mL; Cmax [2]: 219 ng/mL; half-life [2]: 15 h; fraction unbound at 4 h, 1 µM [5]: 0.0001 |
| C[C@@H]1Cc2c([nH]c3ccccc23)[C@@H](c2ccc(OC3CN(C)C3)cc2)N1CC(C)(C)F [compound 33, C[C@@H]1Cc2c([nH]c3ccccc23)[C@H](N1CC(C)(C)F)c1ccc(cc1)OC1CN(C)C1] | 0.501 | 10 | 7.94 | – | – | – | – | – |
| CCN1CC(Oc2ccc([C@@H]3c4[nH]c5ccccc5c4C[C@@H](C)N3CC(C)(C)F)cc2)C1 [compound 34, CCN1CC(C1)Oc1ccc(cc1)[C@H]1N(CC(C)(C)F)[C@H](C)Cc2c1[nH]c1ccccc21] | 0.501 | 4.6 | – | – | – | – | – | – |
| CCCCN1CC(Oc2ccc([C@@H]3c4[nH]c5ccccc5c4C[C@@H](C)N3CC(C)(C)F)cc2)C1 [compound 35, CCCCN1CC(C1)Oc1ccc(cc1)[C@H]1N(CC(C)(C)F)[C@H](C)Cc2c1[nH]c1ccccc21] | 1.58 | 27 | – | – | – | – | – | – |
| CCCCCN1CC(Oc2ccc([C@@H]3c4[nH]c5ccccc5c4C[C@@H](C)N3CC(C)(C)F)cc2)C1 [compound 36, CCCCCN1CC(C1)Oc1ccc(cc1)[C@H]1N(CC(C)(C)F)[C@H](C)Cc2c1[nH]c1ccccc21] | 2.51 | 93 | – | – | – | – | – | – |
| CCCN1CC(Oc2ccc([C@@H]3c4[nH]c5ccccc5c4C[C@@H](C)N3C[C@H](C)CO)cc2)C1 [compound 37, CCCN1CC(C1)Oc1ccc(cc1)[C@H]1N(C[C@H](C)CO)[C@H](C)Cc2c1[nH]c1ccccc21] | 0.501 | 0.7 | 10 | – | – | – | – | – |
| CCCN1CC(Oc2ccc([C@@H]3c4[nH]c5ccccc5c4C[C@@H](C)N3CC(F)(F)CO)cc2)C1 [compound 38, CCCN1CC(C1)Oc1ccc(cc1)[C@H]1N(CC(F)(F)CO)[C@H](C)Cc2c1[nH]c1ccccc21] | 1 | 0 | 0.158 | 1.27 | 18.2 | 3.83 | 6 | – |
| CCCN1CC(Oc2ccc([C@@H]3c4[nH]c5ccccc5c4C[C@@H](C)N3CCC(C)(C)O)cc2)C1 [compound 39, CCCN1CC(C1)Oc1ccc(cc1)[C@H]1N(CCC(C)(C)O)[C@H](C)Cc2c1[nH]c1ccccc21] | 1.26 | 2 | 398 | – | – | – | – | – |
| CCCN1CC(Oc2ccc([C@@H]3c4[nH]c5ccccc5c4C[C@@H](C)N3C[C@@H](C)CO)cc2)C1 [compound 40, CCCN1CC(C1)Oc1ccc(cc1)[C@H]1N(C[C@@H](C)CO)[C@H](C)Cc2c1[nH]c1ccccc21] | 1.26 | 0.4 | 3.16 | 2.62 | 8.8 | 3.05 | 7.6 | – |
| CCCN1CC(Oc2ccc([C@@H]3c4[nH]c5ccccc5c4C[C@@H](C)N3CC(F)(F)COC)cc2)C1 [compound 41, CCCN1CC(C1)Oc1ccc(cc1)[C@H]1N(CC(F)(F)COC)[C@H](C)Cc2c1[nH]c1ccccc21] | 1 | 0.9 | 5.01 | 1.65 | 14.1 | 1.27 | 18.2 | potency loss in AP (antag.) relative to 38 (ERα [4]; replacing OH with OMe): 1.5 log |
| CCCN1CC(Oc2ccc([C@@H]3c4[nH]c5ccccc5c4C[C@@H](C)N3CCC(C)(C)F)cc2)C1 [compound 42, CCCN1CC(C1)Oc1ccc(cc1)[C@H]1N(CCC(C)(C)F)[C@H](C)Cc2c1[nH]c1ccccc21] | 15.8 | 0 | 50.1 | – | – | – | – | – |
| C[C@]12CC[C@@H]3c4ccc(O)cc4C[C@@H](CCCCCCCCC[S+]([O-])CCCC(F)(F)C(F)(F)F)[C@H]3[C@@H]1CC[C@@H]2O (stereo partly shown) [fulvestrant 3, fulvestrant, reference compound] | – | 0.1 | – | – | – | – | – | – |
